Values after ≈ are worked out from the molar mass of the structure shown. “Also recorded” adds a separate entry of the source. Where two headings read alike, the source gives them in different places.
Key:
Property Forecast Index = assay type: physicochemical; conditions: chromatographic log D7.4 + aromatic ring count
[1] = test system: Dd2 strain P. falciparum parasites; test: P. falciparum parasite proliferation, Dd2 strain; assay type: cell-based, Plasmodium falciparum
PfENT1 [2] = target: T1, PfENT1 (Plasmodium falciparum, UniProt Q8IDM6); test: [3H]adenosine uptake into PfENT1-expressing yeast; assay type: cell-based
T1 sequence (Q8IDM6 1-422): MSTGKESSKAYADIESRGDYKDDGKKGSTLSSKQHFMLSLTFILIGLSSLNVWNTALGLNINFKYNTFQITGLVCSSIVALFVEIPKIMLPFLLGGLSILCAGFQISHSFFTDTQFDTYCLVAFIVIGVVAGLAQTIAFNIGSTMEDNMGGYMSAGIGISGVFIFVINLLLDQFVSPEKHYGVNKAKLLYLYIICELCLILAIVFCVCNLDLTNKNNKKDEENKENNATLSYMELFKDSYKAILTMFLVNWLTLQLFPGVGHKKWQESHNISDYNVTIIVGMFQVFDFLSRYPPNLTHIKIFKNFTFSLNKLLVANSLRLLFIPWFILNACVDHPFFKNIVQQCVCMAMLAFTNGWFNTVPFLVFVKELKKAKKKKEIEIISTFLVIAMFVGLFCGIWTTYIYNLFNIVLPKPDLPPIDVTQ

Kinetic solubility = assay type: physicochemical; conditions: phosphate buffered saline, pH 7.4, aqueous buffer, kinetic from dmso stock
hENT1 = target: T2, hENT1 (Homo sapiens, UniProt Q99808); test: [3H]adenosine uptake into human RBC; assay type: cell-based; conditions: for hENT1 [3H]adenosine uptake into RBC IC50: mean ± SD, NE = no effect at 100 μM
T2 sequence (Q99808 1-456): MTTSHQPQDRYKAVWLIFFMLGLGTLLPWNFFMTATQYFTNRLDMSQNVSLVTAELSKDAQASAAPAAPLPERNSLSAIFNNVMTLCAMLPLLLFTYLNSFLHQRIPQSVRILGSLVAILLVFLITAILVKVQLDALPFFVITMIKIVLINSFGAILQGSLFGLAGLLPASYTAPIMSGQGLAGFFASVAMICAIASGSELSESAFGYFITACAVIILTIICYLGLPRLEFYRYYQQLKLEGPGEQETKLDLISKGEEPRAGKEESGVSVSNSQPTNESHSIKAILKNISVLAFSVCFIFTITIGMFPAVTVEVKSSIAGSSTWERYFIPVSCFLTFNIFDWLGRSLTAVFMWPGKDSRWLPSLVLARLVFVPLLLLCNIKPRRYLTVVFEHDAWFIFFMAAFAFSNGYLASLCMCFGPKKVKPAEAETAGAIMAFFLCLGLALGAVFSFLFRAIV

[3] = test system: 3D7 strain P. falciparum parasites; test: P. falciparum parasite proliferation, 3D7 strain; assay type: cell-based; conditions: Plasmodium falciparum, 3D7, 48 h, read-out: 3D7 parasite proliferation IC50
PbENT1 = PbENT1 (Plasmodium berghei, UniProt A0A509AYF4); test: [3H]adenosine uptake into PbENT1-expressing yeast; assay type: cell-based
in vitro = assay type: cell-based; conditions: human
[4] = test system: 7G8 strain P. falciparum parasites; test: P. falciparum parasite proliferation, 7G8 strain; assay type: cell-based; conditions: Plasmodium falciparum, 7G8, read-out: 7G8 parasite proliferation IC50
[5] = test system: HB3 strain P. falciparum parasites; test: P. falciparum parasite proliferation, HB3 strain; assay type: cell-based; conditions: Plasmodium falciparum, HB3, read-out: HB3 parasite proliferation IC50
PfENT1 [6] = target: T1, PfENT1; test: Yeast Kill Assay; assay type: cell-based
human serum albumin = human serum albumin (Homo sapiens, UniProt P02768); test: HSA column binding; assay type: in vitro ADME
PfENT1 [7] = target: T1, PfENT1; test: Yeast HTS Growth Assay
PvENT1 = PvENT1 (Plasmodium vivax, UniProt A5K8B0); test: [3H]adenosine uptake into PvENT1-expressing yeast; assay type: cell-based
[8] = test system: PfENT1-KO (pfent1Δ) parasites in the Dd2 background; test: P. falciparum parasite proliferation, PfENT1-knockout; assay type: cell-based, Plasmodium falciparum; conditions: for IC50: Plasmodium falciparum, DD2, read-out: PfENT1-KO parasite proliferation IC50
PfENT1 [9] = target: T1, PfENT1; test: Yeast Kill Assay; assay type: cell-based; remark: listed apart in the source
[10] = test system: PfENT1-expressing fui1Δ yeast; test: 5-FUrd inhibition of PfENT1-expressing fui1Δ yeast growth; assay type: cell-based; conditions: Saccharomyces cerevisiae, read-out: IC50 for inhibition of yeast growth
hFNT = target: T3, hFNT (Homo sapiens, UniProt Q8NBI5); test: [3H]hypoxanthine uptake into human RBC; assay type: cell-based; conditions: mean ± SD; 15 minutes; NE = no effect at 100 μM
T3 sequence (Q8NBI5 1-491): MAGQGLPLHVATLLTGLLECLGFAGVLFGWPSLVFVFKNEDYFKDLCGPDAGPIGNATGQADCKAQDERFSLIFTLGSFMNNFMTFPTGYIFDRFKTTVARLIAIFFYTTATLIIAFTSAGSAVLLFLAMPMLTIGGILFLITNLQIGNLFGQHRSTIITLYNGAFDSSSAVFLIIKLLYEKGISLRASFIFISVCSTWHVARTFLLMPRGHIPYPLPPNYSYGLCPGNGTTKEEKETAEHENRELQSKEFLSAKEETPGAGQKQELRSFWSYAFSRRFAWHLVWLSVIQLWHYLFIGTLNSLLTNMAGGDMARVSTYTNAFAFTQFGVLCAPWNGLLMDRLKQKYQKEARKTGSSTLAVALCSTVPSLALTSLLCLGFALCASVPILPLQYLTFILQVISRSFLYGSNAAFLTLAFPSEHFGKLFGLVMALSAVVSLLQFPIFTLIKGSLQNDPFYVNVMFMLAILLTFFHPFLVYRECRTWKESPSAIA

[11] = Plasmodium falciparum, DD2, read-out: Dd2 parasite proliferation IC50, mean ± SD

Chain of PbENT1 (A0A509AYF4 whole entry): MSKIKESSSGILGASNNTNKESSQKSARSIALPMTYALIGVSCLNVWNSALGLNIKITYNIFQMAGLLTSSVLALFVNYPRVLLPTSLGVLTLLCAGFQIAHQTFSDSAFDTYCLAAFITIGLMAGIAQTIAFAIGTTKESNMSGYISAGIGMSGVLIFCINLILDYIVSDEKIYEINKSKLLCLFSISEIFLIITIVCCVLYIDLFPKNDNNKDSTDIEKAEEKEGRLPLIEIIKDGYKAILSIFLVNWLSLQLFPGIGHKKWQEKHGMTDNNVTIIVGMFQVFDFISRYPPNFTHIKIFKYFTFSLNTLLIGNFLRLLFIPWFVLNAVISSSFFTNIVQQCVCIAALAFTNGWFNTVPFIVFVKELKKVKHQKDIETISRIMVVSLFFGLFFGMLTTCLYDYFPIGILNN
Chain of human serum albumin (P02768 25-609): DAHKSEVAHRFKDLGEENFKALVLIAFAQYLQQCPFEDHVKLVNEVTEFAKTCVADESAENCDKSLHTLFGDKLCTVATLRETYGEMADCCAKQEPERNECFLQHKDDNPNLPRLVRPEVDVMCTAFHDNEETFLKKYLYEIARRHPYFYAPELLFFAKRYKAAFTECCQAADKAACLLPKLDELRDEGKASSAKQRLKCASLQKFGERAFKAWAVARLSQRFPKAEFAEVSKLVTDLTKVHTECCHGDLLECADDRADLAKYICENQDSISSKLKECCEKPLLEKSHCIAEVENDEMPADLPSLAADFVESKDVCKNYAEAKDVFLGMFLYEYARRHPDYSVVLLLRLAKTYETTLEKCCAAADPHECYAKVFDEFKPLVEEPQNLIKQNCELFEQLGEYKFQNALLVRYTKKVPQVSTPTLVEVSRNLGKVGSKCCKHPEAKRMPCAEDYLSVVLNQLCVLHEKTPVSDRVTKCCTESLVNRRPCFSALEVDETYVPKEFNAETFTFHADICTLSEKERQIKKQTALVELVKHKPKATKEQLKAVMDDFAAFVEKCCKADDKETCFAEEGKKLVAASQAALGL
Chain of PvENT1 (A5K8B0 whole entry): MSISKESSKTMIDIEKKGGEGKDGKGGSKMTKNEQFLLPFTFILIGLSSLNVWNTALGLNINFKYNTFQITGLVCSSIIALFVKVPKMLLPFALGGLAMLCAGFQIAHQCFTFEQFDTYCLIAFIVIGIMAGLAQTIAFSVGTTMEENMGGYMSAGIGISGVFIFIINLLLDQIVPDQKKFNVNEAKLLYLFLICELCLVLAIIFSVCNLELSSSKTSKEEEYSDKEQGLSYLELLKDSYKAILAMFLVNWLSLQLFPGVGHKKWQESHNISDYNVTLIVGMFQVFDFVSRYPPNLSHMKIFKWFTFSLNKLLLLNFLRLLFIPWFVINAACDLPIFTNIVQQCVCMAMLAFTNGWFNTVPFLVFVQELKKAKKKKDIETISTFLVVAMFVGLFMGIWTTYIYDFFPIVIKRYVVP

Structure (SMILES)	PFI (Property Forecast Index)	IC50 [1, 11] [µM]	IC50 (PfENT1 [2]) [µM]	solubility at 1 h (Kinetic solubility) [µg/mL]	IC50 [3] [µM]	IC50 (PbENT1) [µM]	IC50 at 48 h (in vitro) [µM]	IC50 [4] [µM]	IC50 [5] [µM]	IC50 (PfENT1 [6]) [µM]	HSA Column binding (human serum albumin) [%]	EC50 (PfENT1 [7]) [µM]	IC50 (PvENT1) [µM]	IC50 [8] [µM]	IC50 (PfENT1 [9]) [µM]	IC50 (hENT1) [µM]	hFNT [3H]hypoxanthine uptake into RBC IC50 (hFNT)	further results
CC(=O)Nc1nc(-c2c(F)cccc2F)cs1 [GSK-5, N-[4-(2,6-Difluorophenyl)-1,3-thiazol-2-yl]acetamide]	5.7	10.6 ± 2.1	2.59 ± 2.36	16 (≈ 62.9 µM)	8.72 ± 1.6	3.09 ± 2.7	> 100	16.1 ± 5.5	9.09 ± 4.5	4 ± 1.3	90	63.1	2.71 ± 0.25	10.8	6.31	–	–	hENT1 [3H]adenosine uptake into RBC IC50 (hENT1): did not inhibit; also recorded: Low activity/NE^d
O=c1[nH]c(=O)n([C@@H]2O[C@H](CO)[C@@H](O)[C@H]2O)cc1F [5-FUrd, 5-fluorouridine]	–	–	–	–	–	–	–	–	–	–	–	–	–	–	–	–	–	IC50 [10]: 4.8 µM
O=C(Nc1ccccc1C(=O)NC1CC1)c1cccc(N2CCCC2=O)c1 [GSK-3, N-Cyclopropyl-2-{[3-(2-oxo-1-pyrrolidinyl)benzoyl]amino}benzamide]	6	0.59 ± 0.05	0.03 ± 0.01	112 (≈ 308 µM)	2.38 ± 0.5	0.07 ± 0.04	> 100	6.08 ± 1.3	2.21 ± 0.6	0.46 ± 0.3	84	2.51	0.04 ± 0.01	–	0.63	72.4 ± 19.3	–	PfENT1-KO parasite proliferation IC50 ([8]; 75 μM hypoxanthine, NE = no effect at 74.2 μM, N=1 for GSK-2 and GSK-5): Low activity/NE^e
Cc1oc(-c2ccccc2)nc1C(=O)NCCN1CCCCCC1=O [GSK-4, 5-Methyl-N-[2-(2-oxo-1-azepanyl)ethyl]-2-phenyl-1,3-oxazole-4-carboxamide]	6.5	1.9 ± 0.4	0.02 ± 0.01	156 (≈ 457 µM)	6.2 ± 1.9	0.01 ± 0.01	> 100	8.44 ± 2.4	6.16 ± 2.5	0.43 ± 0.3	92	3.98	0.02 ± 0.04	29.4 ± 0.5	1.26	51 ± 27.7	did not inhibit	–
CCc1nnc(NC(=O)c2nc(-c3ccc(Cl)cc3)n3c2CCCCC3)s1 [GSK-2, 3-(4-Chlorophenyl)-N-(5-ethyl-1,3,4-thiadiazol-2-yl)-6,7,8,9-tetrahydro-5H-imidazo[1,5-a]azepine-1-carboxamide]	9.6	1.89 ± 0.2	0.03 ± 0.03	2.5 (≈ 6.22 µM)	2.25 ± 0.4	0.05 ± 0.03	> 100	4.52 ± 0.1	3.55 ± 0.7	0.11 ± 0.04	97	0.25	0.04 ± 0.03	2.66	< 0.08	24.5 ± 24.8	did not inhibit	–
COc1ccc(-c2nc(C(=O)Nc3cccc(-c4nnc5n4CCCCC5)c3)cs2)cc1OC [GSK-1, 2-(3,4-Dimethoxyphenyl)-N-[3-(6,7,8,9-tetrahydro-5H-[1,2,4]triazolo[4,3-a]azepin-3-yl)phenyl]-1,3-thiazole-4-carboxamide]	8.8	0.11 ± 0.009	0.12 ± 0.08	10.5 (≈ 22.1 µM)	0.78 ± 0.2	0.13 ± 0.05	> 100	0.48 ± 0.2	0.34 ± 0.1	0.54 ± 0.2	94	3.16	0.14 ± 0.07	17 ± 4.8	0.63	0.99 ± 0.81	–	–
CCn1cnnc1C1CCN(C(=O)c2cn3ccc(C)cc3n2)CC1 [GSK-6, [4-(4-Ethyl-4H-1,2,4-triazol-3-yl)-1-piperidinyl](7-methylimidazo[1,2-a]pyridin-2-yl)methanone]	4.2	1.89	3.98 ± 1.35	> 133	10.3 ± 4.7	–	> 100	19 ± 3.5	19.7 ± 4.1	1.2 ± 1.1	48	10	–	> 100	1.26	–	did not inhibit	IC50 ([1]; read-out: Dd2 parasite proliferation IC50, mean ± SD): 3.3 ± 1.7 µM; hENT1 [3H]adenosine uptake into RBC IC50 (hENT1): did not inhibit; PbENT1 [3H]Ado uptake IC50 (PbENT1; mean ± SD, yeast expressing P. berghei ENT1, NE = no effect at 100 μM): did not inhibit; PvENT1 [3H]Ado uptake IC50 (PvENT1; mean ± SD, yeast expressing P. vivax ENT1, NE = no effect at 100 μM): did not inhibit

Reference: publication PMC7171677 (ACS infectious diseases, 2019)
